The subject of data set [1] is Fusarium verticillioides. The data set can be described thus: Fungicidal activity against Fusarium verticilliodes isolate YZ04 in rice seeds harvested from bakane diseased plants assessed as number of seedlings abnormally elongated or exhibiting symptoms of damping-off at 8.33 ug/ml at 30 degC incubated for 72 hr measured after 3 days under greenhouse trials (reference value: 44.2%). In kind it is functional.

Data set [2] relates to Fusarium verticillioides. The data set can be described thus: Fungicidal activity against Fusarium verticilliodes isolate JS09 in rice seeds harvested from bakane diseased plants assessed as number of seedlings abnormally elongated or exhibiting symptoms of damping-off at 12.5 ug/ml at 30 degC incubated for 72 hr measured after 3 days under greenhouse trials (reference value: 32.6%). In kind it is functional.

Data set [3] concerns Fusarium verticillioides. Nature of the data set: Fungicidal activity against Fusarium verticilliodes isolate JS02 in rice seeds harvested from bakane diseased plants assessed as number of seedlings abnormally elongated or exhibiting symptoms of damping-off at 25 ug/ml at 30 degC incubated for 72 hr measured after 3 days under greenhouse trials (reference value: 24.9%). The data set is classed as functional.

Data set [4] relates to Fusarium verticillioides. The data set can be described thus: Fungicidal activity against Fusarium verticilliodes isolate N06 in rice seeds harvested from bakane diseased plants assessed as number of seedlings abnormally elongated or exhibiting symptoms of damping-off at 25 ug/ml at 30 degC incubated for 72 hr measured after 3 days under greenhouse trials (reference value: 9.6%). In kind it is functional.

The subject of data set [5] is Fusarium verticillioides. Nature of the data set: Fungicidal activity against Fusarium verticilliodes isolate JS09 in rice seeds harvested from bakane diseased plants assessed as number of seedlings abnormally elongated or exhibiting symptoms of damping-off at 6.25 ug/ml at 30 degC incubated for 72 hr measured after 3 days under greenhouse trials (reference value: 32.6%). The data set is classed as functional.

Data set [6] deals with Fusarium verticillioides. The data set can be described thus: Fungicidal activity against Fusarium verticilliodes isolate YZ09 in rice seeds harvested from bakane diseased plants assessed as number of seedlings abnormally elongated or exhibiting symptoms of damping-off at 6.25 ug/ml at 30 degC incubated for 72 hr measured after 3 days under greenhouse trials (reference value: 17.5%). In kind it is functional.

Data set [7] relates to Fusarium verticillioides. Nature of the data set: Fungicidal activity against Fusarium verticilliodes isolate JS09 in rice seeds harvested from bakane diseased plants assessed as number of seedlings abnormally elongated or exhibiting symptoms of damping-off at 25 ug/ml at 30 degC incubated for 72 hr measured after 3 days under greenhouse trials (reference value: 32.6%). The data set is classed as functional.

Data set [8] concerns Fusarium verticillioides. Nature of the data set: Fungicidal activity against Fusarium verticilliodes isolate YZ13 in rice seeds harvested from bakane diseased plants assessed as number of seedlings abnormally elongated or exhibiting symptoms of damping-off at 8.33 ug/ml at 30 degC incubated for 72 hr measured after 3 days under greenhouse trials (reference value: 26.8%). The data set is classed as functional.

Data set [9] deals with Fusarium verticillioides. Nature of the data set: Fungicidal activity against Fusarium verticilliodes isolate YZ06 in rice seeds harvested from bakane diseased plants assessed as number of seedlings abnormally elongated or exhibiting symptoms of damping-off at 12.5 ug/ml at 30 degC incubated for 72 hr measured after 3 days under greenhouse trials (reference value: 45.3%). The data set is classed as functional.

Another data set deals with Oryza sativa. Nature of the data set: Effect on germination of healthy Oryza sativa (rice) seed cultivar Fengliangyou 4 at 6.25 to 25 ug/ml at 25 degC after 72 hr. In kind it is ADME, organism-based. The settings on record: in vivo.

For `CCOC(=O)/C(C#N)=C(/N)c1ccccc1`, the Activity worked out at 0% in the data set on Fusarium verticillioides [1]; 0% in the data set on Fusarium verticillioides [2]; 0% in the data set with Fusarium verticillioides [3]; 0% in the data set with Fusarium verticillioides [4]; 4.2% in the data set on Fusarium verticillioides [5]; 2.8% in the data set on Fusarium verticillioides [6]. Further, the Activity in the data set with Fusarium verticillioides [7] is on record as 0%; in the data set on Fusarium verticillioides [8] it was 0%; in the data set with Fusarium verticillioides [9], 0%; in the data set with Oryza sativa, “Non-toxic”.

The values are drawn from ChEMBL document CHEMBL3044907, “Sensitivity of Fusarium verticillioides isolates from rice to a novel cyanoacrylate fungicide” (Crop Prot, 2012).
